# Assays:
# Assay type in all cases: cell-based
# OCI-AML3 cells [1] = assay: Annexin V staining and live cell counting by flow cytometry in OCI-AML3 cells with lentiviral p73 knockdown
# Description: Apoptosis induction was measured by annexin V staining (Annexin V positive cells (%)), and live cell numbers were measured by counting beads by flow cytometry.
# TAp73 and ΔNp73 = TAp73 and ΔNp73 levels in AML cells after (R)-2HG treatment
# Text: Results The inventors determined copy numbers of ΔNp73 and TAp73 mRNA levels in 78 AML samples including 31 de novo AML using droplet digital PCR (ddPCR), which allows to determine the absolute quantity of the isoforms expressed, and investigated their clinical and biological relevance. ΔNp73 and TAp73 expression was detected in 93.6% and 98.7% of AML samples at variable levels (mean±SEM, 10.6±5.0, and 106.6±33.7 copies/μL, for ΔNp73 and TAp73, respectively). ΔNp73 and TAp73 mRNA levels were highly correlated (R^2=0.72, P<0.0001). […] However, AML with IDH1/2 mutations had 8.5-fold lower ΔNp73 expression than those with wild-type IDH1/2 (1.8±0.8 vs 15.4±7.7 copies/μL, P=0.0069), with a similar trend for TAp73 (49.0±20.3 vs 138.6±51.4 copies/μL, P=0.056). […] To further explore the regulation of TP73 isoforms, the inventors used MDM2 inhibitor Nutlin-3a to induce p53 which is a transcriptional inducer of ΔNp73. […] AML cells with IDH1/2 mutations are more dependent on Bcl-2 than those without (Chan, Nat Med 2015).
# AML cells = assay: Susceptibility of AML cells to Bcl-2 inhibitor ABT-199 (VEN) after (R)-2HG treatment; conditions: AML cells treated with 2HG
# MOLM-13 cells [2] = assay: Sensitivity of MOLM-13 parent and ABT-199 resistant (ABTR) cells to ABT-199, annexin V and live cell numbers; conditions: MOLM-13 ABTR cells versus parent
# Description: (§1) In FIG. 2A, there are immunoblot images of two AML cell lines (MOLM-13 and MV4;11 cells) that acquired ABT-199 resistance (ABTR) through long-term exposure to continuous treatment of ABT-199. Parental control cells (Parent) are used for comparison. Histone H3 (H3) serves as a loading control, and relative protein levels were measured as ratios of target proteins and H3 through densitometry. […] In FIG. 2B, there is shown sensitivity of MOLM-13 and MV4;11 parent and ABTR cells to ABT-199. Apoptosis induction was measured by annexin V staining (Annexin V positive cells (%)), and live cell numbers were measured by counting beads by flow cytometry.
# MV4;11 cells = assay: Sensitivity of MV4;11 parent and ABT-199 resistant (ABTR) cells to ABT-199, annexin V and live cell numbers; conditions: MV4;11 ABTR cells versus parent
# Description: as §1
# MOLM-13 cells [3] = assay: Sensitivity to ABT-199 in MOLM-13 cells with overexpression of p73 isoforms/variants, annexin V and live cell numbers
# Description: In FIG. 3A, there are immunoblot images of different p73 N-terminal isoforms (TA and ΔN) and C-terminal variants (α, β and γ) protein levels. MOLM13 cells with overexpression of those p73 isoforms/variants was generated by lentiviral transfection. β-actin serves as a loading control. Successful overexpression of p73 isoforms/variants in MOLM-13 cells, which are originally sensitive to ABT-199. […] Apoptosis induction was measured by annexin V staining (Annexin V positive cells (%)), and live cell numbers were measured by counting beads by flow cytometry. […] A p73 isoform ΔNp73γ overexpression induced resistance to ABT-199, indicating a novel resistance mechanism by p73 isoforms/variants to ABT-199 in AML cells.
# OCI-AML3 cells [4] = assay: Apoptosis induction by Nutlin-3a (specific annexin V induction) in OCI-AML3 cells with vector control or p73 knockdown; conditions: 5 μM Nutlin-3a
# Text: (§2) To further explore the regulation of TP73 isoforms, the inventors used MDM2 inhibitor Nutlin-3a to induce p53 which is a transcriptional inducer of ΔNp73.
# p73 = p73 protein levels after MDM2 inhibition in AML cells
# Text: as §2
smiles,measurement,setting,value
Nc1ncn([C@@H]2O[C@H](CO)[C@@H](O)[C@H]2O)c(=O)n1 [5′-azacitidine],"apoptosis induction (Annexin V positive cells), p73 knockdown versus control",OCI-AML3 cells [1]; p73 knockdown,enhances apoptosis induction
O=C(O)CC[C@@H](O)C(=O)O [(R)-2HG],TAp73 and ΔNp73 levels,TAp73 and ΔNp73,reduced both TAp73 and ΔNp73
same,susceptibility to the Bcl-2 inhibitor ABT-199 (VEN),AML cells,increased susceptibility
CC1(C)CCC(CN2CCN(c3ccc(C(=O)NS(=O)(=O)c4ccc(NCC5CCOCC5)c([N+](=O)[O-])c4)c(Oc4cnc5[nH]ccc5c4)c3)CC2)=C(c2ccc(Cl)cc2)C1 [ABT-199],sensitivity to VEN,OCI-AML3 cells [1]; lentiviral knockdown of p73,enhanced sensitivity
same,"apoptosis induction (Annexin V positive cells), p73 knockdown versus control",OCI-AML3 cells [1]; p73 knockdown,greater
same,"live cell numbers, p73 knockdown versus control",OCI-AML3 cells [1]; p73 knockdown,superior reduction of live cell numbers
same,"sensitivity to ABT-199 (apoptosis, live cell numbers)",MOLM-13 cells [2],clearly show resistance
same,"sensitivity to ABT-199 (apoptosis, live cell numbers)",MV4;11 cells,clearly show resistance
same,"sensitivity to ABT-199 (apoptosis, live cell numbers)",MOLM-13 cells [3]; MOLM-13 cells with TAp73α overexpression,still sensitive
same,"sensitivity to ABT-199 (apoptosis, live cell numbers)","MOLM-13 cells [3]; MOLM-13 cells with TAp73α overexpression, listed as VEN",minimally increased VEN-induced apoptosis
same,"sensitivity to ABT-199 (apoptosis, live cell numbers)",MOLM-13 cells [3]; MOLM-13 cells with vector control,still sensitive
same,"sensitivity to ABT-199 (apoptosis, live cell numbers)",MOLM-13 cells [3]; MOLM-13 cells with ΔNp73β overexpression,still sensitive
same,"sensitivity to ABT-199 (apoptosis, live cell numbers)",MOLM-13 cells [3]; MOLM-13 cells with ΔNp73γ overexpression,resistant
same,"sensitivity to ABT-199 (apoptosis, live cell numbers)","MOLM-13 cells [3]; MOLM-13 cells with ΔNp73γ overexpression, listed as VEN",striking resistance
COc1ccc(C2=N[C@@H](c3ccc(Cl)cc3)[C@@H](c3ccc(Cl)cc3)N2C(=O)N2CCNC(=O)C2)c(OC(C)C)c1 [Nutlin-3a],specific annexin V induction,OCI-AML3 cells [4]; OCI-AML3 cells with Shp73 (knockdown of TAp73 and ΔNp73),61.3±5.2%
same,specific annexin V induction,OCI-AML3 cells [4]; OCI-AML3 cells with vector control,21.9±1.3%
same,p73 protein levels,p73,increased p73 protein levels
CCCCCCCCOC(=O)[C@H](O)CCC(=O)O [octyl-(R)-2HG],TAp73 and ΔNp73 levels,TAp73 and ΔNp73,reduced both TAp73 and ΔNp73
same,susceptibility to the Bcl-2 inhibitor ABT-199 (VEN),AML cells,increased susceptibility
